Measurements reported in BindingDB's records for patent US11780845 (Relay Therapeutics, 2023).
pIC50: −log10 of the molar value.

Target: Fibroblast growth factor receptor 2 (Homo sapiens, UniProt P21802)
Assay: FGFR2 Biochemical Caliper Assay
Experimental: Compounds of the present invention were also tested in a FGFR2 Biochemical Caliper Assay. Compounds were prepared in 10 mM DMSO solution and serially diluted into 11 concentrations by 3-fold dilution. […] 5 uL of ATP solution (100 uM) was added to start the reaction and the plate was incubated for 90 minutes, then 70 uL of stopping buffer (0.5M EDTA) was added to terminate the reaction. Each well was analyzed using EZ reader.

Fibroblast growth factor receptor 2, sequence (P21802 whole entry): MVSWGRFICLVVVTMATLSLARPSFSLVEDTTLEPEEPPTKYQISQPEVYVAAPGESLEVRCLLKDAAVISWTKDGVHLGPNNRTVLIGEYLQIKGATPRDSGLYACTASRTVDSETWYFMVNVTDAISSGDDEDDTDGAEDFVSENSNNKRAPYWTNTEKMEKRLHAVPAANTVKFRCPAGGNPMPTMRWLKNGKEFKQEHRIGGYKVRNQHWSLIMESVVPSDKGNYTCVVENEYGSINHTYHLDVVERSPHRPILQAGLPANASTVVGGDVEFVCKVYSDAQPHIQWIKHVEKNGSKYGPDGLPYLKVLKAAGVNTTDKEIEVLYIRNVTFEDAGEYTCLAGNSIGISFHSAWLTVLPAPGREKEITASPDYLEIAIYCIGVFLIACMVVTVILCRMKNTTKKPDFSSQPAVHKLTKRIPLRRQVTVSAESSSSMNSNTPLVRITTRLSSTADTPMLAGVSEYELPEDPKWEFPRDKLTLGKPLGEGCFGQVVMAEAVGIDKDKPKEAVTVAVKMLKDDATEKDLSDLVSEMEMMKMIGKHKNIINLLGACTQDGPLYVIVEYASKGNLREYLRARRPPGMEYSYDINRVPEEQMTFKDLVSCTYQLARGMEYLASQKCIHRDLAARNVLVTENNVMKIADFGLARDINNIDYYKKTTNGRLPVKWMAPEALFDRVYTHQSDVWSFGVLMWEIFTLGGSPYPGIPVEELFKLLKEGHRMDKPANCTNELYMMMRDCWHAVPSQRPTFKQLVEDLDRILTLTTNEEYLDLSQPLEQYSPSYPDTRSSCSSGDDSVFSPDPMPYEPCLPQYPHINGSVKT

## C=CC(=O)Nc1ccc(-c2c(-c3ccc(Oc4cccc(C)c4)c(OC)c3)c3c(N)ncnc3n2C)cc1 [US11780845, Example 27]
  pIC50: > 7.00

## C=CC(=O)Nc1ccc(-c2c(-c3ccc(Oc4ccccc4)c(OC)c3)c3c(N)ncnc3n2C)cc1 [US11780845, Example 12]
  pIC50: > 7.00

## CC#CC(=O)N(C)c1ccc(-c2c(-c3ccc(Oc4cccc(C)n4)c(OC)c3)c3c(N)ncnc3n2C)cc1 [US11780845, Example 26]
  pIC50: > 7.00

## CC#CC(=O)Nc1ccc(-c2c(-c3ccc(Oc4cccc(C)n4)c(OC)c3)c3c(N)ncnc3n2C)cc1
  pIC50: > 7.00
